Columns and labels:
Solid stability test = assay type: physicochemical; settings: for Purity - Day 7: 7 days
Protocol: (§1) The solid samples obtained in the examples were analyzed for crystalline form using a PANalytical EMPYREAN equipped with a PIXceI^1D detector. The instrument parameters are as follows: scanning range: 3° (2θ) to 40° (2θ); step size: 0.013° (2θ); tube voltage and current are 45 KV and 40 mA, respectively.
The HPLC measurements were performed using an Agilent HPLC 1260 series instrument.
Crystalline form II was stored separately at a sealed condition at 60° C. and at 40° C./75% RH for 7 days. The purity of the samples was determined by HPLC before and after storage, and the XRPD patterns were measured.

High humidity test = assay type: physicochemical
Protocol: (§2) Crystalline form II of the compound of Formula (1) was placed at 25° C. and 92.5% high humidity for 30 days. Samples were taken at 0, 5, 10, and 30 days, respectively, to observe changes in sample characteristics, test for drying loss, measure the total impurity content by HPLC, and measure the XRPD patterns of the samples.

Light exposure test = assay type: physicochemical
Protocol: as §2, with “placed under conditions of light intensity not less than 1.2×10^6 Lux·hr, with near-ultraviolet energy not less than 200 w·hr/m^2,” for “placed”, “C., RH 25%” for “C. and 92.5% high humidity”

High temperature test = assay type: physicochemical; settings: 60° C.
Protocol: as §2, with “a high temperature of 60°” for “25°”, “C.” for “C. and 92.5% high humidity”, “characteristics, measure specific rotation with a polarimeter,” for “characteristics,”

Mechanical grinding test = assay type: physicochemical; settings: 0.5 g ground in a mortar for about 5 minutes
Protocol: as §1
0.5 g of crystalline form II was placed in a mortar and ground for about 5 minutes, then the solid was collected for XRPD testing.

[1] = Crystalline form transformation test (heating); assay type: physicochemical; settings: slowly heated to 200° C., then cooled to room temperature
Protocol: as §1
Crystalline form IV was slowly heated to 200° C. and then cooled to room temperature. Samples before and after heating were collected for XRPD testing.

[2] = Pharmacokinetic test in beagle dogs; assay type: in vivo; settings: dog, blood
Protocol: (§3) A clear solution of crystalline form II of the compound of Formula (1) was prepared in 10% DMSO, 60% PEG 400, and 30% water for injection and administered intravenously to beagle dogs. An aqueous suspension of crystalline form II of the compound of Formula (1) in 0.5% sodium carboxymethylcellulose (CMC·Na) was prepared and administered orally to beagle dogs to investigate its pharmacokinetic characteristics.

[3] = Pharmacokinetic test in SD rats; assay type: in vivo; settings: rat, blood
Protocol: as §3, with “SD rats.” for “beagle dogs.”, “SD rats” for “beagle dogs”

With O=C(NC1(C23CC(C(=O)O)(C2)C3)CC1)c1cccc2ccn(Cc3cc4ccccc4o3)c12 [Crystalline form II, 3-(1-(1-(benzofuran-2-ylmethyl)-1H-indole-7-carboxamido)cyclopropyl)bicyclo[1.1.1]pentane-1-carboxylic acid] as the compound, how does the “Purity - Day 7” value (Solid stability test; HPLC, 40° C./75% RH) read?
The value was 99.4 Area %.

What about the “Purity at the beginning” value (Solid stability test; HPLC, before storage) of the same compound?
Its value is 99.4 Area %.

What about the “Purity - Day 7” value (Solid stability test; HPLC, sealed condition at 60° C.) of the same compound?
The value was 99.6 Area %.

And the “crystalline form after storage (XRPD)” value (Solid stability test; sealed at 60° C. and at 40° C./75% RH for 7 days)?
The value was “remained unchanged”.

What about the “differences in appearance, moisture, content and crystalline form compared to day 0” value (High humidity test; 25° C., 92.5% RH, 30 days) of the same compound?
Its value is “no significant differences”.

What about the water absorption (High humidity test; 25° C., 92.5% RH, 30 days) of the same compound?
Its water absorption is 0.03%.

What about the new impurities formed (High humidity test; 25° C., 92.5% RH, 30 days, HPLC) of the same compound?
The new impurities formed was at most 0.05%.

What about the “stability under high humidity conditions” value (High humidity test; RH 92.5%) of the same compound?
Its value is “stable”.

And the “crystalline form (XRPD)” value (Light exposure test; light exposure, 30 days)?
Its value is “did not change”.

And the new impurities formed (Light exposure test; light exposure, 30 days, HPLC)?
Its new impurities formed is at most 0.05%.

What about the “changes in moisture and content compared to day 0” value (Light exposure test; light not less than 1.2×10^6 Lux·hr, near-UV not less than 200 w·hr/m^2, 25° C., RH 25%, 30 days) of the same compound?
The value was “no significant changes”.

What about the “stability under light exposure conditions” value (Light exposure test; total illumination not less than 1.2×10^6 Lux·hr, near-UV not less than 200 w·hr/m^2) of the same compound?
Its value is “stable”.

And the “stability under high-temperature conditions” value (High temperature test)?
The value was “stable”.

What about the “differences in appearance, moisture, content and crystalline form compared to day 0” value (High temperature test; 30 days) of the same compound?
The value was “no significant differences”.

And the new impurities formed (High temperature test; 30 days, HPLC)?
The new impurities formed was at most 0.05%.

And the “crystalline form after grinding (XRPD)” value (Mechanical grinding test)?
Its value is “remained unchanged”.

With O=C(NC1(C23CC(C(=O)O)(C2)C3)CC1)c1cccc2ccn(Cc3cc4ccccc4o3)c12 [Crystalline form IV, 3-(1-(1-(benzofuran-2-ylmethyl)-1H-indole-7-carboxamido)cyclopropyl)bicyclo[1.1.1]pentane-1-carboxylic acid] as the compound, how does the “crystalline form after heating (XRPD)” value [1] read?
Its value is “transformed into crystalline form II”.

Which clearance ([2]; single intravenous 5 mg/kg, read-out: clearance (CL)) does the source give for O=C(NC1(C23CC(C(=O)O)(C2)C3)CC1)c1cccc2ccn(Cc3cc4ccccc4o3)c12 [compound of Formula (1), 3-(1-(1-(benzofuran-2-ylmethyl)-1H-indole-7-carboxamido)cyclopropyl)bicyclo[1.1.1]pentane-1-carboxylic acid] here?
The clearance was 6.64 mL/min/kg.

What about the Vd ([2]; single intravenous 5 mg/kg, read-out: steady-state apparent volume of distribution (Vss)) of the same compound?
The Vd was 1.5 L/kg.

What about the AUC(0-t) ([2]; single intravenous 5 mg/kg, solution of crystalline form II in 10% DMSO, 60% PEG 400, 30% water, read-out: drug exposure (AUC0-t)) of the same compound?
Its AUC(0-t) is 12600 ng·h/mL.

What about the AUC(0-t) ([2]; single oral 45 mg/kg, suspension of crystalline form II in 0.5% CMC·Na, read-out: exposure (AUC0-t)) of the same compound?
The AUC(0-t) was 79600 ng·h/mL.

And the Cmax ([2]; single oral 45 mg/kg, suspension of crystalline form II in 0.5% CMC·Na, read-out: maximum blood drug concentration (Cmax))?
The Cmax was 32900 ng/mL.

And the clearance ([3]; single intravenous 15 mg/kg, read-out: clearance (CL))?
Its clearance is 3.59 mL/min/kg.

What about the Vd ([3]; single intravenous 15 mg/kg, read-out: steady-state apparent volume of distribution (Vss)) of the same compound?
The Vd was 1.18 L/kg.

What about the AUC(0-t) ([3]; single intravenous 15 mg/kg, solution of crystalline form II in 10% DMSO, 60% PEG 400, 30% water, read-out: drug exposure (AUC0-t)) of the same compound?
Its AUC(0-t) is 78800 ng·h/mL.

What about the AUC(0-t) ([3]; single oral 40 mg/kg, suspension of crystalline form II in 0.5% CMC·Na, read-out: exposure (AUC0-t)) of the same compound?
The AUC(0-t) was 153000 ng·h/mL.

What about the Cmax ([3]; single oral 40 mg/kg, suspension of crystalline form II in 0.5% CMC·Na, read-out: maximum blood drug concentration (Cmax)) of the same compound?
Its Cmax is 27700 ng/mL.

From patent publication US20240294511A1, “SOLID FORM OF INDOLE COMPOUND, PREPARATION METHOD THEREFOR AND USE THEREOF” (KEYTHERA (SUZHOU) BIO-PHARMACEUTICALS CO., LIMITED, priority 2021, published 2024)
